According to PubChem BioAssay AID256 (DTP/NCI, 2004):
“And” between values parts separate entries of the source, which are not always exact repeats. Equal entries are not always repeated. Inconclusive results and toxic doses are left out. How the source made its calls: active means survival T/C of 150% or more; inactive means T/C below 125% in these data.

Tested on: CD2F1 mice, L1210 leukemia ip, survival T/C
Experiment: NCI In Vivo Anticancer Drug Screen. Data for tumor model L1210 Leukemia (intraperitoneal) in CD2F1 (CDF1) mice
Conditions: higher = longer survival
Summary of the method: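 Implant tumor; dose compound or vehicle; measure endpoint in both groups; report treated divided by control.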

[1] = endpoint: mean survival time, dose: 12.5 mg/kg/injection, schedule: Q01DX009 (ip), vehicle: saline
[2] = endpoint: mean survival time, dose: 25.0 mg/kg/injection, schedule: Q01DX009 (ip), vehicle: saline with Tween-80
[3] = endpoint: mean survival time, dose: 25.0 mg/kg/injection, schedule: Q01DX009 (ip), vehicle: saline
[4] = endpoint: mean survival time, dose: 50.0 mg/kg/injection, schedule: Q01DX009 (ip), vehicle: saline with Tween-80
[5] = endpoint: mean survival time, dose: 100.0 mg/kg/injection, schedule: Q01DX009 (ip), vehicle: saline with Tween-80
[6] = endpoint: mean survival time, dose: 100.0 mg/kg/injection, schedule: Q01DX009 (ip), vehicle: saline
[7] = endpoint: mean survival time, dose: 200.0 mg/kg/injection, schedule: Q01DX009 (ip), vehicle: saline with Tween-80
[8] = endpoint: mean survival time, dose: 200.0 mg/kg/injection, schedule: Q01DX009 (ip), vehicle: saline
[9] = endpoint: mean survival time, dose: 400.0 mg/kg/injection, schedule: Q01DX009 (ip), vehicle: saline
[10] = endpoint: mean survival time, dose: 100.0 mg/kg/injection, schedule: Q04DX003 (ip), vehicle: saline with Tween-80
[11] = endpoint: mean survival time, dose: 200.0 mg/kg/injection, schedule: Q04DX003 (ip), vehicle: saline with Tween-80
[12] = endpoint: mean survival time, dose: 400.0 mg/kg/injection, schedule: Q04DX003 (ip), vehicle: saline with Tween-80
[13] = endpoint: mean survival time, dose: 100.0 mg/kg/injection, schedule: Q04DX002 (ip), vehicle: saline with Tween-80
[14] = endpoint: mean survival time, dose: 200.0 mg/kg/injection, schedule: Q04DX002 (ip), vehicle: saline with Tween-80
[15] = endpoint: mean survival time, dose: 400.0 mg/kg/injection, schedule: Q04DX002 (ip), vehicle: saline with Tween-80
[16] = endpoint: mean survival time, dose: 200.0 mg/kg/injection, schedule: Q01DX001 (ip), vehicle: saline with Tween-80
[17] = endpoint: mean survival time, dose: 400.0 mg/kg/injection, schedule: Q01DX001 (ip), vehicle: saline with Tween-80
[18] = endpoint: mean survival time, dose: 100.0 mg/kg/injection, schedule: Q01DX001 (ip), vehicle: saline
[19] = endpoint: mean survival time, dose: 200.0 mg/kg/injection, schedule: Q01DX001 (ip), vehicle: saline
[20] = endpoint: mean survival time, dose: 400.0 mg/kg/injection, schedule: Q01DX001 (ip), vehicle: saline
[21] = endpoint: mean survival time, dose: 100.0 mg/kg/injection, schedule: Q04DX003 (ip), vehicle: acetone
[22] = endpoint: mean survival time, dose: 200.0 mg/kg/injection, schedule: Q04DX003 (ip), vehicle: acetone
[23] = endpoint: mean survival time, dose: 400.0 mg/kg/injection, schedule: Q04DX003 (ip), vehicle: acetone

Measured: T/C

COc1ccc(NC2=C(C)C(=O)C3=C(C2=O)[C@H](COC(N)=O)[C@]2(OC)[C@@H]4N[C@@H]4CN32)cc1OC
inactive: endpoint: median survival time, dose: 3.0 mg/kg/injection, schedule: Q01DX001 (ip), vehicle: water 124 % of control and 111 % of control | endpoint: median survival time, dose: 6.0 mg/kg/injection, schedule: Q01DX001 (ip), vehicle: water 124 % of control | endpoint: median survival time, dose: 24.0 mg/kg/injection, schedule: Q01DX001 (ip), vehicle: water 110 % of control

NCCCNCCSP(=O)(O)O
inactive: endpoint: mean survival time, dose: 12.5 mg/kg/injection, schedule: Q01DX009 (ip), vehicle: saline with Tween-80 106 % of control | [1] 95 % of control | [2] 101 % of control | [3] 106 % of control | [4] 102 % of control | endpoint: mean survival time, dose: 50.0 mg/kg/injection, schedule: Q01DX009 (ip), vehicle: saline 101 % of control | [5] 101 % of control | [6] 96 % of control | [7] 104 % of control | [8] 106 % of control | [9] 93 % of control

CC(C)(C)OC(=O)NC(Cc1cn(Cc2ccccc2)cn1)C(=O)O (configuration not stated)
inactive: [10] 95 % of control | [11] 101 % of control | [12] 93 % of control

OC(Cc1cccc(/C=N/N2CCOCC2)n1)(C(F)(F)F)C(F)(F)F
inactive: [11] 89 % of control | [12] 89 % of control

O=P(Cl)(Oc1cccc2c(OP(=O)(Cl)N(CCCl)CCCl)cccc12)N(CCCl)CCCl (configuration not stated)
inactive: endpoint: mean survival time, dose: 31.25 mg/kg/injection, schedule: Q01DX001 (ip), vehicle: distilled water + Tween-80 100 % of control | endpoint: mean survival time, dose: 62.5 mg/kg/injection, schedule: Q01DX001 (ip), vehicle: distilled water + Tween-80 101 % of control | endpoint: mean survival time, dose: 125.0 mg/kg/injection, schedule: Q01DX001 (ip), vehicle: distilled water + Tween-80 91 % of control | endpoint: mean survival time, dose: 250.0 mg/kg/injection, schedule: Q01DX001 (ip), vehicle: distilled water + Tween-80 95 % of control | endpoint: mean survival time, dose: 500.0 mg/kg/injection, schedule: Q01DX001 (ip), vehicle: distilled water + Tween-80 92 % of control

Cc1cccc(NC(=O)/C=C/c2ccccc2)c1C
inactive: [13] 98 % of control | [14] 94 % of control | [15] 94 % of control

S=C1SC2CCCCC2S1 (configuration not stated)
inactive: endpoint: mean survival time, dose: 100.0 mg/kg/injection, schedule: Q01DX001 (ip), vehicle: Klucel (hydroxypropylcellulose) (HPC) 104 % of control | endpoint: mean survival time, dose: 200.0 mg/kg/injection, schedule: Q01DX001 (ip), vehicle: Klucel (hydroxypropylcellulose) (HPC) 107 % of control | endpoint: mean survival time, dose: 400.0 mg/kg/injection, schedule: Q01DX001 (ip), vehicle: Klucel (hydroxypropylcellulose) (HPC) 98 % of control

O=[N+]([O-])c1ccc(/C=C2/c3ccccc3-c3nc4ccccc4cc32)cc1
inactive: endpoint: mean survival time, dose: 100.0 mg/kg/injection, schedule: Q01DX001 (ip), vehicle: saline with Tween-80 93 % of control | [16] 87 % of control | [17] 93 % of control

O=C(Nc1cc(Cl)c(I)c(Cl)c1)C(F)(F)F
inactive: [18] 98 % of control | [19] 101 % of control | [20] 98 % of control

C=CN1C(=O)NC2(CCCCC2)C1=O
inactive: [2] 96 % of control | endpoint: mean survival time, dose: 25.0 mg/kg/injection, schedule: Q04DX003 (ip), vehicle: saline with Tween-80 92 % of control | [4] 96 % of control | endpoint: mean survival time, dose: 50.0 mg/kg/injection, schedule: Q04DX003 (ip), vehicle: saline with Tween-80 97 % of control | [10] 95 % of control

O=C(N/N=C/c1ccc2c(c1)CCC2)c1cccc([N+](=O)[O-])c1
inactive: [10] 91 % of control | [16] 94 % of control | [11] 94 % of control | [17] 101 % of control | [12] 106 % of control

CC(=O)OC1CCC2(C)C(=CCC3C2CCC2(C)C(OC(=O)c4ccccc4)CCC32)C1 (configuration not stated)
inactive: [21] 104 % of control | [22] 90 % of control | [23] 86 % of control

CN1C(=O)c2ccccc2C1(c1ccccc1)c1ccccc1
inactive: [10] 92 % of control | [11] 103 % of control | [12] 102 % of control

O=[N+]([O-])c1ccc(N/N=C2/CCSc3ccccc32)cc1
inactive: [6] 102 % of control | [8] 101 % of control | [9] 95 % of control

N#CC1C2CCC(O2)C1C(=O)OCc1ccccc1 (configuration not stated)
inactive: [2] 102 % of control | endpoint: mean survival time, dose: 25.0 mg/kg/injection, schedule: Q04DX002 (ip), vehicle: saline with Tween-80 106 % of control | [4] 102 % of control | endpoint: mean survival time, dose: 50.0 mg/kg/injection, schedule: Q04DX002 (ip), vehicle: saline with Tween-80 101 % of control | [5] 102 % of control | [13] 101 % of control | [14] 89 % of control

CC(=O)OC1CCC2(C)C3CCC4(C)C(C(C)CCCC(C)C)CCC4C3C3C(=O)OC32C1 (configuration not stated)
inactive: endpoint: mean survival time, dose: 100.0 mg/kg/injection, schedule: Q01DX001 (ip), vehicle: acetone 97 % of control | [21] 98 % of control | endpoint: mean survival time, dose: 200.0 mg/kg/injection, schedule: Q01DX001 (ip), vehicle: acetone 101 % of control | [22] 93 % of control | endpoint: mean survival time, dose: 400.0 mg/kg/injection, schedule: Q01DX001 (ip), vehicle: acetone 97 % of control | [23] 90 % of control

CCOC1=Cc2c(oc3c(C(C)(C)C)cc(OCC)cc23)OC(C(C)(C)C)=C1
inactive: endpoint: median survival time, dose: 1.56 mg/kg/injection, schedule: Q01DX009 (ip), vehicle: saline with Tween-80 95 % of control and 102 % of control | endpoint: median survival time, dose: 3.12 mg/kg/injection, schedule: Q01DX009 (ip), vehicle: saline with Tween-80 95 % of control and 102 % of control | endpoint: median survival time, dose: 6.25 mg/kg/injection, schedule: Q01DX009 (ip), vehicle: saline with Tween-80 101 % of control and 102 % of control | endpoint: median survival time, dose: 12.5 mg/kg/injection, schedule: Q01DX009 (ip), vehicle: saline with Tween-80 98 % of control and 103 % of control | endpoint: median survival time, dose: 25.0 mg/kg/injection, schedule: Q01DX009 (ip), vehicle: saline with Tween-80 98 % of control and 102 % of control | endpoint: median survival time, dose: 50.0 mg/kg/injection, schedule: Q01DX009 (ip), vehicle: saline with Tween-80 114 % of control and 98 % of control

Cc1ccccc1NC(=O)Oc1ccc(-c2ccccc2)cc1Cl
inactive: [13] 86 % of control | [14] 89 % of control | [15] 93 % of control

CCNCc1ccc2c(c1)OCO2
inactive: endpoint: mean survival time, dose: 75.0 mg/kg/injection, schedule: Q01DX001 (ip), vehicle: saline 101 % of control | endpoint: mean survival time, dose: 150.0 mg/kg/injection, schedule: Q01DX001 (ip), vehicle: saline 101 % of control | endpoint: mean survival time, dose: 300.0 mg/kg/injection, schedule: Q01DX001 (ip), vehicle: saline 103 % of control

C=C1C2CCC3C2C(C)(C)CCCC13C (configuration not stated)
inactive: [6] 98 % of control | [10] 103 % of control | [8] 97 % of control | [11] 104 % of control | [9] 101 % of control | [12] 93 % of control

C=Cc1cc[n+](CCCCCC[n+]2ccc(C=C)cc2)cc1
inactive: [18] 92 % of control | [19] 92 % of control | [20] 88 % of control

COC(=O)C(Cl)(Cl)c1nc(NC(C)=O)[nH]c(=O)c1Cl
inactive: [10] 95 % of control | [11] 98 % of control | [12] 91 % of control

COC1OC(CNC(=O)N(C)N=O)C(O)C(O)C1O (configuration not stated)
active: endpoint: mean survival time, dose: 113.0 mg/kg/injection, schedule: Q01DX009 (ip), vehicle: saline 153 % of control
inactive: endpoint: mean survival time, dose: 33.0 mg/kg/injection, schedule: Q01DX009 (ip), vehicle: saline 120 % of control

Nc1ncnc2c1ncn2C1OC(C(=O)OCCO)C(O)C1O (configuration not stated)
inactive: [1] 108 % of control | [3] 114 % of control | endpoint: mean survival time, dose: 25.0 mg/kg/injection, schedule: Q01DX009 (ip), vehicle: suspension in saline 110 % of control | endpoint: mean survival time, dose: 25.0 mg/kg/injection, schedule: Q04DX002 (ip), vehicle: saline 93 % of control | endpoint: mean survival time, dose: 50.0 mg/kg/injection, schedule: Q01DX009 (ip), vehicle: suspension in saline 124 % of control | endpoint: mean survival time, dose: 50.0 mg/kg/injection, schedule: Q04DX002 (ip), vehicle: saline 95 % of control | endpoint: mean survival time, dose: 100.0 mg/kg/injection, schedule: Q04DX002 (ip), vehicle: saline 93 % of control | endpoint: mean survival time, dose: 200.0 mg/kg/injection, schedule: Q04DX002 (ip), vehicle: saline 90 % of control

Cc1ccc(S(=O)(=O)N(C)c2cc([N+](=O)[O-])ccc2Br)cc1
inactive: [13] 95 % of control | [14] 103 % of control | [15] 114 % of control

C1=CC2CC3(OCCO3)C2C1 (configuration not stated)
inactive: [5] 98 % of control | [7] 98 % of control
